Blank lines part the entries; values can stand above or below the molecule they belong to. Non-standard residues stand in square brackets, D forms with d. Residues, ends and D or L forms follow the SMILES beside them. No end group written: not given here. pT = C[C@@H](OP(=O)(O)O)[C@H](N)C(=O)O; pS = N[C@@H](COP(=O)(O)O)C(=O)O
Tests used:
[1] = target: T1, Scc2^1-181-Scc4 (WT) (Saccharomyces cerevisiae, UniProt P40090+Q04002); experiment: Peptide binding to Scc2^1-181-Scc4 WT by biolayer interferometry; set-up: species or system budding yeast; conditions: for binding to Scc2^1–181-Scc4 in vitro (in words): Scc2^1–181-Scc4 WT
T1 construct: made in house; host or cells: bacteria (E. coli is stated only for the Ctf19 complex proteins)
T1 sequence (P40090 1-624): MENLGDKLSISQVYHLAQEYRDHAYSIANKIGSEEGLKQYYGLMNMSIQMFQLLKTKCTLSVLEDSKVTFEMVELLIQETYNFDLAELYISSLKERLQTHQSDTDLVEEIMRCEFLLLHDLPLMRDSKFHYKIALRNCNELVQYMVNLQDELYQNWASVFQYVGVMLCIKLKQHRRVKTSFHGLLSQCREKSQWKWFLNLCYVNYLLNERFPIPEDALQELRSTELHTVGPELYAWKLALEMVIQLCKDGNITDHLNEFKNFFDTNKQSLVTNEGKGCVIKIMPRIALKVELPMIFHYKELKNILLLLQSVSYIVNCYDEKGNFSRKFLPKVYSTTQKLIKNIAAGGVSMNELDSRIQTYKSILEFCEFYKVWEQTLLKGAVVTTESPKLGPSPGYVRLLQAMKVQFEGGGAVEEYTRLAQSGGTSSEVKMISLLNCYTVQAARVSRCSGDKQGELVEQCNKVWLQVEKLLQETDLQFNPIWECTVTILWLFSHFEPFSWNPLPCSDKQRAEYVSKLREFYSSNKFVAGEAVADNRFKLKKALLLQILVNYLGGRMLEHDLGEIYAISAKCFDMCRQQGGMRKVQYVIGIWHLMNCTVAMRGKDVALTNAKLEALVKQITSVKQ
T1 sequence (Q04002 1-181 partner limits assumed): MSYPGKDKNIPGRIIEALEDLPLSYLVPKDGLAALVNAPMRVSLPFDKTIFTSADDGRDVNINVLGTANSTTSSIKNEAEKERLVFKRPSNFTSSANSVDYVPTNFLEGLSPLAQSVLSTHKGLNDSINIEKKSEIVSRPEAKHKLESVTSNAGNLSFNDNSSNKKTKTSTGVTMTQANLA
Protocol: Figure S5 Synthetic Ctf19^1–11 binds Scc2^1–181-Scc4, and Binding Requires Phosphorylation of Ctf19 Residue T4 or S5, Related to Figure 6 Experiments were carried out as in Figure 6B (error bars – +/−SD for three independent experiments, obscured by data points where not visible). m3 refers to immobilized Scc2^1-181-Scc4^m3. Ctf19 peptides and Scc2^1-181-Scc4 complexes used are listed in the table along with measured dissociation constants (Kd; SE – standard error for best-fit binding curve; single site, specific binding; Phos. – phosphorylated residues). TEXT PRINTED IN THE PICTURE: Ctf19 residues 1-11; Phos. none: Kd(±SE)(μM): n.d. (Scc2^1-181-Scc4: WT) | Ctf19 residues 1-11; Phos. pT4: Kd(±SE)(μM): 1757(6000+) (Scc2^1-181-Scc4: WT) | Ctf19 residues 1-11; Phos. pS5: Kd(±SE)(μM): 122(66) (Scc2^1-181-Scc4: WT); Kd(±SE)(μM): n.d. (Scc2^1-181-Scc4: m3) | Ctf19 residues 1-6; Phos. pT4;pS5: Kd(±SE)(μM): 22.6(3.0) (Scc2^1-181-Scc4: WT)
We used biolayer interferometry (ForteBio) to quantify the interaction between Scc2^1-181–Scc4 and synthetic peptides derived from the N-terminal region of Ctf19 (Tufts University Core Facility, Boston). For all steps, we used octet buffer (40mM HEPES, pH 7.5; 200mM NaCl; 1mM DTT) and low-volume 96-well opaque black plates. […] This step was allowed to reach saturation before a final incubation in octet buffer.
To derive binding curves, we first applied a linear correction so that all association steps began at zero response units. We then performed a linear drift correction by subtracting the signal for Scc2^1-181-Scc4 incubated in buffer alone during the association step (no peptide, linear subtraction for each time point, independent control for each experiment). We then applied a loading factor to correct for the Scc2^1-181-Scc4 immobilization efficiency for each well. From these normalized association curves, we extracted maximum responses for each well by averaging the signal across the final ten seconds of the association step. We performed these operations for three independent experiments, performed with new tips and samples, for each data point. […] Data points represent mean maximum responses, and error bars show the standard deviation for the three experiments. Fits were determined using GraphPad Prism software assuming a single specific binding site.

[2] = test system: analog-sensitive DDK (Cdc7-AS3/Dbf4); experiment: DDK activity assay: phosphate transfer to Ctf19-Mcm21 by analog-sensitive DDK; assay type: biochemical, S. cerevisiae; conditions: Ctf19-Mcm21 substrate, γ-^32[P]-ATP, one hour at 30°C, autoradiography, similar to those that inhibit kinase activity in vivo (Wan et al., 2006)
Protocol: Figure S2 Determinants of Ctf19 Phosphorylation by DDK, Related to Figure 1 (A) Products of phosphorylation reactions containing Ctf19-Mcm21, analog-sensitive DDK, γ-^32[P]-ATP, and increasing concentrations of PP1. (B) Reactions carried out as in panel A, except wild-type DDK was used as in Figure 1B. After phosphorylation, reactions were subjected to a brief cleavage reaction by incubation with trypsin (top, autoradiography). Identical cleavage reactions were carried out in the absence of DDK and ATP to identify Ctf19-Mcm21 cleavage fragments (bottom; Coomassie). A schematic of the cleavage reaction is shown below (PDB: 3ZXU). (C) Phosphorylation of mutant Ctf19-Mcm21 complexes by purified DDK. Phosphorylation reactions were carried out as in panel A except that PP1 was not included. Substrates are indicated below. […] Reactions were carried out as in (B) in the presence or absence of an equimolar amount of purified Ctf3 complex.
An S. cerevisiae strain in which Cdc7 has been tagged at its C terminus with a TAP tag (calmodulin binding peptide – TEV site – tandem Protein A tags) was grown to an optical density (A600) of 2 in 12 l of yeast extract peptone dextrose (YPD) medium. […]
For phosphorylation reactions, purified DDK was concentrated to approximately 20uM as determined by absorbance at 280nm. […] Reaction products were analyzed by SDS-PAGE and autoradiography.

[3] = test system: centromeric Scc2 in ctf3Δ cells expressing DBF4-FRB and CTF19-FKBP12; experiment: Artificial tethering of Dbf4-FRB to Ctf19-FKBP12: centromeric Scc2 localization by ChIP-qPCR; assay type: cell-based, budding yeast; conditions: rapamycin 1 μM, 2.5 hr, nocodazole and benomyl, versus DMSO, at least four independent experiments
Protocol: (F) Scc2 localization was assessed by ChIP-qPCR in the presence or absence of DDK tethering, CTF3, and Ctf19 phosphorylation sites. Wild-type (AM21613), ctf19-9A (AM21681), ctf19-2A (AM22360), ctf3Δ (AM21614), ctf19-9A ctf3Δ (AM21617), ctf19-2A ctf3Δ (AM22672), and control (AM21486) strains, all expressing DBF4-FRB and CTF19-FKBP12, were arrested in G1 for 3 hr before release into medium containing nocodazole, benomyl, and either DMSO (no DDK tethering) or rapamycin (DDK tethering; 1 μM) for 2.5 hr. Mean values of at least four independent experiments are shown. Error bars indicate SE (^∗p < 0.05; ^∗∗p < 0.01; Student’s t test, unpaired, two-tails; ns, not significant).
To artificially tether Dbf4 to the kinetochores, Dbf4 was tagged with FRB (pFA6a-FRB-KanMX6), and CTF19, ctf19-9A and ctf19-2A were tagged with FKBP12-TRP1 (pFA6a-FKBP12-TRP1). Proteins were tagged at their C-termini by one-step cassette integrations at their original gene loci as previously described ([Haruki et al., 2008]). Yeast strains for these experiments also carried TOR1-1, which confers rapamycin resistance, and the fpr1Δ mutation. Tethering of FRB and FKBP12 fusion proteins was induced by addition of rapamycin to the medium at a final concentration of 1 μM. For control cultures, an equal volume of DMSO was added instead. […]

[4] = target: T2, Scc2^1–181-Scc4 complex, wild type, tagged (6His-FLAG-Scc2 1-181; 6His-Scc4) (S. cerevisiae, UniProt Q04002 1-181; P40090 1-624); experiment: BLI; ForteBio; 6His-tagged Scc2 1-181-Scc4 captured on NiNTA tips, Ctf19 peptides in solution at varying concentrations; 40mM HEPES pH 7.5, 200mM NaCl, 1mM DTT; steady-state responses, single specific site fit (Prism); three independent experiments; conditions: both partners purified
T2 construct: Scc4, budding yeast cohesin loader subunit; source: recombinant, expressed in bacteria, purified; not shown: 6His, N-terminal, kept; FLAG, N-terminal, kept
T2 sequence 1: T1 sequence (Q04002 1-181 partner limits assumed)
T2 sequence 2: T1 sequence (P40090 1-624)

[5] = target: T3, Scc4, as in the crystallised Scc2^1–181-Scc4 complex (S. cerevisiae, UniProt P40090 1-624); experiment: crystal structure; TEV-cleaved Scc2 1-181-Scc4 mixed with Ctf19 1-6 diphosphorylated peptide at 1:1.8; 8% PEG 4,000, 80mM PIPES pH 6, 18°C; space group P6_2, 3.19Å; conditions: both partners purified
T3 construct: Scc4, budding yeast cohesin loader subunit; Single chain of m8, for the pairs within the structure; not shown: 6His, N-terminal, cleaved
T3 sequence: T1 sequence (P40090 1-624)

[6] = target: T4, Scc2^1–181-Scc4 complex, wild type, tagged (6His-FLAG-Scc2 1-181; 6His-Scc4) (S. cerevisiae, UniProt Q04002 1-181; P40090 1-624); experiment: BLI; phosphorylated S5
T4 chain 1: T1 sequence (Q04002 1-181 partner limits assumed)
T4 chain 2: T1 sequence (P40090 1-624)

[7] = target: T4, Scc2^1–181-Scc4 complex, wild type, …; experiment: BLI; phosphorylated T4; SE 6000+

Kd ([1]; immobilized Scc2^1-181-Scc4 WT on NiNTA tips, 40mM HEPES, pH 7.5, 200mM NaCl, 1mM DTT, three independent experiments, SE for best-fit binding curve, single site, specific binding): 22.6 µM
Molecule: CSCC[C@H](N)C(=O)N[C@@H](CC(=O)O)C(=O)N[C@@H](Cc1ccccc1)C(=O)N[C@H](C(=O)N[C@@H](COP(=O)(O)O)C(=O)N[C@@H](CC(=O)O)C(=O)O)[C@@H](C)OP(=O)(O)O [Ctf19 residues 1-6; Phos. pT4;pS5] (HELM PEPTIDE1{M.D.F.[C[C@@H](OP(=O)(O)O)[C@H](N[*:1])C(=O)[*:2]].[O=C([C@H](COP(=O)(O)O)N[*:1])[*:2]].D}$$$$V2.0)

Molecule: CC(C)(C)n1nc(-c2cccc3ccccc23)c2c(N)ncnc21 [PP1]
concentration at which phosphate transfer to Ctf19 was inhibited [2]: ~25 µM

Molecule: CO[C@H]1C[C@@H]2CC[C@@H](C)[C@@](O)(O2)C(=O)C(=O)N2CCCC[C@H]2C(=O)O[C@H]([C@H](C)C[C@@H]2CC[C@@H](O)[C@H](OC)C2)CC(=O)[C@H](C)/C=C(\C)[C@@H](O)[C@@H](OC)C(=O)[C@H](C)C[C@H](C)/C=C/C=C/C=C/1C [rapamycin]
effect on Ctf3 requirement for centromeric Scc2 localization (in words) [3]: bypassed the Ctf3 requirement

binding to Scc2^1–181-Scc4 in vitro (in words) ([1]; pH 7.5, listed as unmodified Ctf19^1–11): did not interact with Scc2^1–181-Scc4 | binding to Scc2^1–181-Scc4 in vitro (in words) ([1]; pH 7.5, listed as unphosphorylated peptide): did not
Molecule: MDFTSDTTNSH [Ctf19 residues 1-11; Phos. none, unmodified synthetic Ctf19^1–11 peptide]

binding to Scc2^1–181-Scc4 in vitro (in words) ([1]; pH 7.5): detectable binding
Molecule: MDFpTSDTTNSH [Ctf19 residues 1-11; Phos. pT4, synthetic Ctf19^1–11 peptide phosphorylated at T4]

Kd [4]: ~23 µM
B1: Synthetic Ctf19^1–6 peptide phosphorylated at T4 and S5 (MDFpTpSD) (peptide)
peptide: MDF[pT][pS]D
notes: Ctf19 residues 1-6, budding yeast; also called phosphorylated Ctf19^1–6; Ctf19^1-6 diphosphorylated peptide; source: synthetic peptide (Tufts Univ. Core Facility)

binding result [5]: binds
B2: Scc2^1–181, as in the crystallised Scc2^1–181-Scc4 complex (domain or fragment, S. cerevisiae, UniProt Q04002 1-181, looked up)
chain: T1 sequence (Q04002 1-181 partner limits assumed)
notes: Single chain of m8, for the pairs within the structure; also called Scc2n; source: recombinant, purified with Scc4, tags cleaved with TEV protease; not shown: 6His, N-terminal, cleaved

Kd [6]: 122 µM
B3: Synthetic Ctf19^1–11 peptide phosphorylated at S5 (MDFTpSDTTNSH) (peptide)
peptide: MDFT[pS]DTTNSH

Kd [7]: 1760 µM
B4: Synthetic Ctf19^1–11 peptide phosphorylated at T4 (MDFpTSDTTNSH) (peptide)
peptide: MDF[pT]SDTTNSH
